For test [1], the target named is Fibroblast growth factor receptor 3 (Homo sapiens, UniProt P22607). The experiment in a line: (§1) Selectivity interaction (Kinase panel (Z-LYTE Assay)) EUB0001632a FGFR3. The note with it: at 10 µM.
For test [2], the system named is Fibroblast growth factor receptor 3 (Homo sapiens), P22607 [K650E]. The description is as §1. Conditions: at 10 µM.
Test [3] concerns the target Serine/threonine-protein kinase 32C (Homo sapiens) (UniProt Q86UX6). The experiment in a line: Selectivity interaction (LanthaScreen Eu Kinase Binding Assay) EUB0001632a STK32C. The note with it: at 10 µM.
Test [4] has as its target Serine/threonine-protein kinase OSR1 (Homo sapiens) (UniProt O95747). The test can be described thus: Selectivity interaction (KinomeScan (DiscoverX)) EUB0000666a OXSR1. Conditions: at 10 µM.
Test [5] has as its target T1, Dual specificity mitogen-activated protein kinase kinase 3 (Homo sapiens) (UniProt P46734).
T1 sequence (whole entry): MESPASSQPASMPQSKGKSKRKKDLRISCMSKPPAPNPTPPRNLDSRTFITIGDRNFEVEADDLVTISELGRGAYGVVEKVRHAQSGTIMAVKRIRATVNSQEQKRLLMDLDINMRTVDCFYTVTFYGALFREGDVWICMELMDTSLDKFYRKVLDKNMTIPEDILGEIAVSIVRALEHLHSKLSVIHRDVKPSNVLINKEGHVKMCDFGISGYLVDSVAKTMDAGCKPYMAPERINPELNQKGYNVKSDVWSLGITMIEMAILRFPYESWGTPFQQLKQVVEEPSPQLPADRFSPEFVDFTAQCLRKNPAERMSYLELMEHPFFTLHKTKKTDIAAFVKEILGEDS
The test can be described thus: Selectivity interaction (KinomeScan (DiscoverX)) EUB0000229b MAP2K3. Conditions: at 10 µM.

The target in test [6] is Mitogen-activated protein kinase 14 (Homo sapiens, UniProt Q16539). The experiment in a line: Selectivity interaction (ActivX KiNativ screen (ex vivo kinase selectivity in human PBMCs)) EUB0001619a MAPK14. The class given is cell-based. Conditions: PBMC, at 1 µM.
The target of test [7] is Serine/threonine-protein kinase WNK2 (Homo sapiens) (UniProt Q9Y3S1). The experiment in a line: Selectivity interaction (ActivX KiNativ screen (ex vivo kinase selectivity in human PBMCs)) EUB0001619a WNK2. Format: cell-based. The note with it: PBMC, at 1 µM.
Test [8] has as its target Tyrosine-protein kinase CSK (Homo sapiens) (UniProt P41240). The test can be described thus: Selectivity interaction (ActivX KiNativ screen (kinase selectivity in THP-1 cell lysates)) EUB0000639a CSK. The class given is subcellular. The note with it: lysate, at 0.01 µM.
Test [9] addresses Aurora kinase B (Homo sapiens, UniProt Q96GD4). The test can be described thus: Selectivity interaction (KinomeScan (DiscoverX)) EUB0001049a AURKB. Conditions: at 1 µM.
In test [10] the target is Serine/threonine-protein kinase MRCK beta (Homo sapiens) (UniProt Q9Y5S2). The experiment in a line: Selectivity interaction (KinomeScan (DiscoverX)) EUB0000092b CDC42BPB. The note with it: at 10 µM.
Test [11] deals with T2, Serine/threonine-protein kinase ULK2 (Homo sapiens) (UniProt Q8IYT8).
T2 sequence (whole entry): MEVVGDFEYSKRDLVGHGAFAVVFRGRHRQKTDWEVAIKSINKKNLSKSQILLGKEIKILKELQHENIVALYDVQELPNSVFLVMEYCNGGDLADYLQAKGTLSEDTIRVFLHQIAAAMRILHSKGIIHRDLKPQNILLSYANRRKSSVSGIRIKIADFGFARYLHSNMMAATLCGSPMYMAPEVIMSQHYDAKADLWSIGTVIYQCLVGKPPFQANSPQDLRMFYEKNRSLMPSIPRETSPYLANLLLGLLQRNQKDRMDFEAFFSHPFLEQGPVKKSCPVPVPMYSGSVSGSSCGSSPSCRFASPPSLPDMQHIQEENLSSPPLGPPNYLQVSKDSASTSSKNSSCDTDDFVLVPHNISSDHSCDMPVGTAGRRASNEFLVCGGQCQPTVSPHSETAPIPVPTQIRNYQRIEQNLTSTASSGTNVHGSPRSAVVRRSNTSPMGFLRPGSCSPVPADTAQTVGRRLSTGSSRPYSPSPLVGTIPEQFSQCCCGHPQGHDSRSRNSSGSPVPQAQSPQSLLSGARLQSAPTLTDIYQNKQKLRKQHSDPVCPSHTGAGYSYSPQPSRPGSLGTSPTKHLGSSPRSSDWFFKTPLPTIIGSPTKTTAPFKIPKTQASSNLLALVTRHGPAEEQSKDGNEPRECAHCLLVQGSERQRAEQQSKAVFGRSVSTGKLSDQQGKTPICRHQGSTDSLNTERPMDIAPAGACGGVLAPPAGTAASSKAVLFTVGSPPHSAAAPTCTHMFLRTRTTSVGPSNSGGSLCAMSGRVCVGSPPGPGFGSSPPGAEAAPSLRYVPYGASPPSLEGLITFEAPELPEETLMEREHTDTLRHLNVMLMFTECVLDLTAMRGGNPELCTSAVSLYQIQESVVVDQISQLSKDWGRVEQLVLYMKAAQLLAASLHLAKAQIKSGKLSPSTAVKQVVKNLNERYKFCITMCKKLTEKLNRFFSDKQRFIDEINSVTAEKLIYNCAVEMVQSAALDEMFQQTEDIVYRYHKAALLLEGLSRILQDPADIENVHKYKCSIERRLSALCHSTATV
The test can be described thus: Selectivity interaction (KinomeScan (DiscoverX)) EUB0000092b ULK2. Conditions: at 10 µM.

Test [12] addresses T3, cAMP-dependent protein kinase catalytic subunit PRKX (Homo sapiens) (UniProt P51817).
T3 sequence (whole entry): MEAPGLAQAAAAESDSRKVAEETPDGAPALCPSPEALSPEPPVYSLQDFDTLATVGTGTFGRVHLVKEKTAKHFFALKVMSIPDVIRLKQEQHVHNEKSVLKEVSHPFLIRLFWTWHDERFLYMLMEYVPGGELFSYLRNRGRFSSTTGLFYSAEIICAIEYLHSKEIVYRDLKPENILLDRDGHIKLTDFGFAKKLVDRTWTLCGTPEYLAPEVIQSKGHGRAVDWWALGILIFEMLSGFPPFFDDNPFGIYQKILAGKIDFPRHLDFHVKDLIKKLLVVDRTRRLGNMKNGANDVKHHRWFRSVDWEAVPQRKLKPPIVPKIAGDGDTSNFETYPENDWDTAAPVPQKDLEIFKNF
The experiment in a line: Selectivity interaction (KinomeScan (DiscoverX)) EUB0000618a PRKX. The note with it: at 10 µM.

Data on 8 molecules can be found in ChEMBL document CHEMBL5465560, “Selectivity Literature for EUbOPEN Chemogenomic Library” (2024).

Chain of Serine/threonine-protein kinase MRCK beta (Homo sapiens) (Q9Y5S2 whole entry): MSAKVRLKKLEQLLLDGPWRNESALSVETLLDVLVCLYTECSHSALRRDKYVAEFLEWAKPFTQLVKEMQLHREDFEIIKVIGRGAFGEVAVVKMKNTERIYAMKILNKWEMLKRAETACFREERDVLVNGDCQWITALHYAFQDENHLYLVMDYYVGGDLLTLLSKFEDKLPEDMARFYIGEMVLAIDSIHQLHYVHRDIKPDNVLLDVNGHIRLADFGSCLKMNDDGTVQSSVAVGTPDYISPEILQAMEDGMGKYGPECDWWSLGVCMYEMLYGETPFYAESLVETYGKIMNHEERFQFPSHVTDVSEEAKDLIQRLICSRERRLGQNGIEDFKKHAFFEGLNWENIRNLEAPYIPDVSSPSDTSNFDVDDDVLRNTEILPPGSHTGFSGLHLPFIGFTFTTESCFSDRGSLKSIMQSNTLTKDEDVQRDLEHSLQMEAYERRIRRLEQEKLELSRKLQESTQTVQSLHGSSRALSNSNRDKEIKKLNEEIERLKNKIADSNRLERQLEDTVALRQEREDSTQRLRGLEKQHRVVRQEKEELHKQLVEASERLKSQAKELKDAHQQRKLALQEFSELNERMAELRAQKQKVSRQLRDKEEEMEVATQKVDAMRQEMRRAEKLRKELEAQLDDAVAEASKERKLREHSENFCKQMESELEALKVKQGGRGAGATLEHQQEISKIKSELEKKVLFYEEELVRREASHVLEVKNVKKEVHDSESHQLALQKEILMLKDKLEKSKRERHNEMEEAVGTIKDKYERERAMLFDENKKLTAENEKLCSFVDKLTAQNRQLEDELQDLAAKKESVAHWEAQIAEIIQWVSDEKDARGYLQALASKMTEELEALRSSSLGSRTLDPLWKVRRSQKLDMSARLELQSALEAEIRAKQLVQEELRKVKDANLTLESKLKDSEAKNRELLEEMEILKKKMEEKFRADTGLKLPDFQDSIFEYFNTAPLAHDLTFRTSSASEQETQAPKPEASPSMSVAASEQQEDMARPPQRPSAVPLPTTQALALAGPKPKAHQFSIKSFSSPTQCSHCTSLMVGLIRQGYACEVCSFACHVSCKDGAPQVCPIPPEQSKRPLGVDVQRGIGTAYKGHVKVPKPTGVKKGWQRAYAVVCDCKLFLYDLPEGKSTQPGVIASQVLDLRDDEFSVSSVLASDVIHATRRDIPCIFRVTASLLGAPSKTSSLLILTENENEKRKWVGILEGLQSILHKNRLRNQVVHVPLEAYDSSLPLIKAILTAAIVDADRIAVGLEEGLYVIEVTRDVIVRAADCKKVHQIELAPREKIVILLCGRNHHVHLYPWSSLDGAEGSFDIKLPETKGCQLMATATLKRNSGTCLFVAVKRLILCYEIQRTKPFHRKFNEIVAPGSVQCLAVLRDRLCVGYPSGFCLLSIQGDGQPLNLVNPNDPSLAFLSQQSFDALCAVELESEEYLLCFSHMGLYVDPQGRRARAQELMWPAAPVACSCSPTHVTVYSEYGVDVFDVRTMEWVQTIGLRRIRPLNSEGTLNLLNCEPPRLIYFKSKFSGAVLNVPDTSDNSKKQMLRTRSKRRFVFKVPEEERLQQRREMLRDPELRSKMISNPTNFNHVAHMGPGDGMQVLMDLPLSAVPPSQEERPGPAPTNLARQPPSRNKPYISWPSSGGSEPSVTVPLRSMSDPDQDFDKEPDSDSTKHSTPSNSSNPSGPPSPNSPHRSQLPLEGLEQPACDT
Chain of Aurora kinase B (Q96GD4 whole entry): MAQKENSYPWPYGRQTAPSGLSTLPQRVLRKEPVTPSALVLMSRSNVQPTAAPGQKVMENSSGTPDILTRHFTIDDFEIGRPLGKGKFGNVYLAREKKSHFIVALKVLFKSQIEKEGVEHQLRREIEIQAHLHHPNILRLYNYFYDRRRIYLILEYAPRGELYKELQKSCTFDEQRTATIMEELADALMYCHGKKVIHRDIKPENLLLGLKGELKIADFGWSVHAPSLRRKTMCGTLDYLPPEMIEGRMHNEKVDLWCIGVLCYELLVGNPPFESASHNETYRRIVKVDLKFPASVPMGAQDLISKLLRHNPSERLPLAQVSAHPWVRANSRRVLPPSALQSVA
Chain of Fibroblast growth factor receptor 3 (Homo sapiens), P22607 [K650E] (P22607 whole entry K650E): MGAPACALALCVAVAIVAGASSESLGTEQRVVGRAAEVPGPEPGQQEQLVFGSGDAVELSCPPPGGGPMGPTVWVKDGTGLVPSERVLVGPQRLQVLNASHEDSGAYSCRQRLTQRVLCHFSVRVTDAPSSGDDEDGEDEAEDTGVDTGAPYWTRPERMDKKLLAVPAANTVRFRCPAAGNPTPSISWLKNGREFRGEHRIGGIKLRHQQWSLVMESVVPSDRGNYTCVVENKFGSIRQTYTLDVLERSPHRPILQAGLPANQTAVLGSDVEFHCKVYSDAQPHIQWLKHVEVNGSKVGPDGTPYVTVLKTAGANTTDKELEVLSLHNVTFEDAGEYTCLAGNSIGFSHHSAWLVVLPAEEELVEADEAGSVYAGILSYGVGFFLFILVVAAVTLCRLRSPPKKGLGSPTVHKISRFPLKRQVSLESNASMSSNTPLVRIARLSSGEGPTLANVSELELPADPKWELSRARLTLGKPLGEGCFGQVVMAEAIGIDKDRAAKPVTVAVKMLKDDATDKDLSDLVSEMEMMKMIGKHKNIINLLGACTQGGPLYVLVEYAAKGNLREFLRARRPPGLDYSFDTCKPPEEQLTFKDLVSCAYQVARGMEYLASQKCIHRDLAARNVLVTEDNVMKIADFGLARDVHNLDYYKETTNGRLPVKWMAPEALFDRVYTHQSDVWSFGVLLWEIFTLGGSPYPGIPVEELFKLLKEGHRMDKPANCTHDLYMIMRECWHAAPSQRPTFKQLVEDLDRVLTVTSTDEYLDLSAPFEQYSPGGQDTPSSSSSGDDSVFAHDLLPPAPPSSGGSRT
Chain of Mitogen-activated protein kinase 14 (Q16539 whole entry): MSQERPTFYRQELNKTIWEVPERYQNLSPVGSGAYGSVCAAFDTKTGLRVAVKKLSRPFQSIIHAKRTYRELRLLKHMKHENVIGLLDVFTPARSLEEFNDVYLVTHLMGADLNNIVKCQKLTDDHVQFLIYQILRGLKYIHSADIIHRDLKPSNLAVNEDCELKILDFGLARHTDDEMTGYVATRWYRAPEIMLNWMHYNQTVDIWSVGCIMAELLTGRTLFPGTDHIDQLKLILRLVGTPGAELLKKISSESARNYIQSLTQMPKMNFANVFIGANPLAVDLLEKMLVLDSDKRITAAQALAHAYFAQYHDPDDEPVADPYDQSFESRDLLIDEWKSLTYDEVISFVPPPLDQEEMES
Chain of Serine/threonine-protein kinase 32C (Homo sapiens) (Q86UX6 whole entry): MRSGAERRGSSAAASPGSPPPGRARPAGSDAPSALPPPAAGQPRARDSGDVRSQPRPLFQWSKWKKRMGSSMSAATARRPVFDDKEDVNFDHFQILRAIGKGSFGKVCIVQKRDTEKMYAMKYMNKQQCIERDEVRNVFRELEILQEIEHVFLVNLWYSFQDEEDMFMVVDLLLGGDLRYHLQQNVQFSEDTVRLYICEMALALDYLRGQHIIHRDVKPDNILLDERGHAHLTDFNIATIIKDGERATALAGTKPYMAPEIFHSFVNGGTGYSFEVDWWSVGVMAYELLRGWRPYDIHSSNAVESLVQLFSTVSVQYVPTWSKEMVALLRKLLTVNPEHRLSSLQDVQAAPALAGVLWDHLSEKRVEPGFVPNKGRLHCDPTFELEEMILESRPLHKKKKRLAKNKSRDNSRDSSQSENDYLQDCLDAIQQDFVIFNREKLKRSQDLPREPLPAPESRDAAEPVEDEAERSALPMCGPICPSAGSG
Chain of Serine/threonine-protein kinase OSR1 (Homo sapiens) (O95747 2-527 limits assumed): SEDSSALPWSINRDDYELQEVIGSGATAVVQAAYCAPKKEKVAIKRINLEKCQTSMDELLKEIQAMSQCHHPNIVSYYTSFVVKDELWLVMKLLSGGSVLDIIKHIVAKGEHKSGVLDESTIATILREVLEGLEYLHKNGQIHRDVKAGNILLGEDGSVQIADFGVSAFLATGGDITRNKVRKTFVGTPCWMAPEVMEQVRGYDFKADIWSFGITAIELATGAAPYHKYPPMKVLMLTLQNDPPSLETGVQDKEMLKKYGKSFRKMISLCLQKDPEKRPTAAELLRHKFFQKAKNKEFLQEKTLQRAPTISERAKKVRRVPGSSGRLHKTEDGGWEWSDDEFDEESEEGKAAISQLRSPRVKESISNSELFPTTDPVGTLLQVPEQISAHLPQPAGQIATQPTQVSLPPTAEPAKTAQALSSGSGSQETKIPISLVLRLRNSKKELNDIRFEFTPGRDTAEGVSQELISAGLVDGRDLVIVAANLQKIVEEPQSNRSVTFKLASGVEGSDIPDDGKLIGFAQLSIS
Chain of Fibroblast growth factor receptor 3 (P22607 23-806 limits assumed): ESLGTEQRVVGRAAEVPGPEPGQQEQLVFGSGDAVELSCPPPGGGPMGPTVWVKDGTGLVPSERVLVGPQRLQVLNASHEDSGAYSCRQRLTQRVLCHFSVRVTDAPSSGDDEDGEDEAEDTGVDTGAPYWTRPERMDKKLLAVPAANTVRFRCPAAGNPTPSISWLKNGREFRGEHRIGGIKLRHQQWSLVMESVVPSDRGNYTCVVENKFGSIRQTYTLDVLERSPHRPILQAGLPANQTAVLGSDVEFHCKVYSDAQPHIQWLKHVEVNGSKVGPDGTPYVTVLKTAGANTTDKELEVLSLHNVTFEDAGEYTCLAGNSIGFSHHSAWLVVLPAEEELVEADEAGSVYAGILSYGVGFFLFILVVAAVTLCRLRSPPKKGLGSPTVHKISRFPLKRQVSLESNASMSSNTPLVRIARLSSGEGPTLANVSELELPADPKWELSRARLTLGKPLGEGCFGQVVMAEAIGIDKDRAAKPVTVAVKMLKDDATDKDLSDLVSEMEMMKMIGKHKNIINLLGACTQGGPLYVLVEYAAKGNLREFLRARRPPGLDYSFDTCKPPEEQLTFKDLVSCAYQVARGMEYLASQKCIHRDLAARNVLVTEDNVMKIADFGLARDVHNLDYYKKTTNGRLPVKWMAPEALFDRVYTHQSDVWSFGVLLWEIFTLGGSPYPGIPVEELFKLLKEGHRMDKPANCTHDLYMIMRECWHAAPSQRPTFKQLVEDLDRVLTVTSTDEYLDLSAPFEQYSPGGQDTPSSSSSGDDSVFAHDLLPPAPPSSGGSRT

For `Cn1cc(-n2cnc3c(NCc4nc5cc(Cl)c(Cl)cc5[nH]4)nc(N4CCOCC4)nc32)cn1`, the % of control in test [1] came to 4.08%; in test [2], 19.3%. Further, the % of inhibition in test [3] was -34.6%.

With `O=C(NOC[C@H](O)CO)c1ccc(F)c(F)c1Nc1ccc(I)cc1F`, in test [4], the % of control was determined as 100%.

Consider `COc1cc(N(C)c2ccnc3ccc(C(F)(F)F)cc23)cc(OC)c1OC`, for which the % binding in [5] turned out to be 72%.

`N#Cc1cccc(-c2c[nH]c3ncnc(N4CCOCC4)c23)c1`: the % of inhibition in [6] is -2%; in test [7] it was -6%.

Turning to `CC[C@@H]1[C@H](F)C(=O)N[C@@H]1COc1nccc2cc(C(N)=O)c(OC)cc12` [ZIMLOVISERTIB], the % of inhibition in test [8] is 2.3%.

Molecule `COc1cc(Nc2nc(C)cc(-c3cnn4nc(OC)ccc34)n2)cc(C(F)(F)F)c1` had a % of control in test [9] of 85%.

With `CCC(=O)N1CCN(c2ccc(-n3c(=O)ccc4cnc5ccc(-c6cnc7ccccc7c6)cc5c43)cc2C(F)(F)F)CC1`, the % of control in test [10] is 3.4%; in [11], 75%.

In turn, `O[C@H]1CC[C@H](Nc2ncc3nc(Nc4c(F)cc(F)cc4F)n([C@H]4CCOC4)c3n2)CC1` gave a % of control in [12] of 100%.
